Test results reported in ChEMBL document CHEMBL3046898, “Synthesis and characterization of flurbiprofen hydrazide derivatives as potential anti-HCV, anticancer and antimicrobial agents” (2013).
Activity calls are given as the source filed them. The calls are words filed in the database; no cut-off is given here.

Assays:
Micrococcus lylae = assay: Antibacterial activity against Micrococcus lylae at 6.25 to 200 ug/ml after 24 hrs by microwell dilution method; type: functional, organism-based
Kluyveromyces marxianus = assay: Antifungal activity against Kluyveromyces marxianus at 10 mg/ml after 48 hrs by disc diffusion method; type: functional, organism-based
Photorhabdus luminescens = assay: Antibacterial activity against Photorhabdus luminescens at 10 mg/ml after 24 hrs by disc diffusion method; type: functional, organism-based
Hs-578T = assay: Cytotoxicity against human Hs 578T assessed as cell growth at 10 uM after 48 hrs by SRB assay; type: functional; conditions: read-out: Activity
CAKI-1 = assay: Cytotoxicity against human Caki1 assessed as cell growth at 10 uM after 48 hrs by SRB assay; type: functional; conditions: CAKI-1, 48 h, read-out: Activity
SNB-75 = assay: Cytotoxicity against human SNB75 assessed as cell growth at 10 uM after 48 hrs by SRB assay; type: functional; conditions: SNB-75, 48 h, read-out: Activity
[1] = system: Acinetobacter radioresistens; assay: Antibacterial activity against Acinetobacter radioresistens at 6.25 to 200 ug/ml after 24 hrs by microwell dilution method; type: functional, organism-based
CCRF-CEM = assay: Cytotoxicity against human CCRF-CEM assessed as cell growth at 10 uM after 48 hrs by SRB assay; type: functional; conditions: read-out: Activity

Compound: CC(C(=O)NN1C(=O)CSC1c1ccc(C(F)(F)F)cc1)c1ccc(-c2ccccc2)c(F)c1 (stereo not drawn)
- Activity (Micrococcus lylae): inactive
- Activity (Kluyveromyces marxianus): inactive
- Activity (Photorhabdus luminescens): inactive
- growth at 10 µM (Hs-578T): 54.2%
- growth at 10 µM (CAKI-1): 33.6%
- growth at 10 µM (SNB-75): 43%
- Activity [1]: inactive
- growth at 10 µM (CCRF-CEM): 74.7%
